According to US8945584B2, “Cell culture system of a hepatitis C genotype 3a and 2a chimera” (Hvidovre Hospital, priority 2007, dated 2015):

Legend:
[1] = test system: Huh7.5 cells; test: Determination of 50% tissue culture infectious doses (TCID50) of culture supernatants; type: cell-based, human; settings: for infectivity titer (TCID50): day 9 post-transfection, one of 6 replicate wells infected with undiluted supernatant
Experimental: To determine the efficiency of the developed system, HCV RNA titers are determined in IU/ml (international units/ml) with Taq-Man Real-Time-PCR and infectious titers are determined with a tissue culture infectious dose-50 method. This titer indicates the dilution of the examined viral stock, at which 50% of the replicate cell cultures used in the essay become infected and is given in TCID50/ml.
In general, the TCID50 of culture supernatants was determined as previously described. Huh7.5 cells were washed with PBS, trypsinized and plated at 6×10^3 cells per well of a poly-D-lysine coated 96 well plate (Nunc). After ˜24 hrs cells were incubated with 10-fold serial dilutions of viral stock cell culture supernatant in complete growth medium. For each dilution, six replicate wells were inoculated. After incubation for 48 hrs the plate was subjected to immuno staining for NS5A as described above. Wells were evaluated by light microscopy and scored positive if at least one positive cell could be detected. TCID50 values were calculated as described by Reed and Muench.
For determination of TCID50 Huh7.5 cells were plated at 6×10^3 cells/well on a poly-D-Lysine coated 96 well plate and infected with serial dilutions of virus containing cell culture supernatant in complete growth medium in replicates of 6 wells per dilution. After incubation for 48 hours cells were stained for NS5A expression. A well was counted positive, if at least one infected cell was visible. Calculation of TCID50 was done as previously described by Reed et al. † Average of 3 independent determinations, * average of 2 independent determinations, +1 determination. HCV RNA titers were determined with an TaqMan assay. Supernatants from transfection experiments were not tested in TaqMan due to DNA/RNA input from the transfection procedure. Specific infectivity was calculated as infectious units (TCID50/ml) per genome number (IU/ml).

[2] = test system: Huh7.5 cells; test: Real-time PCR (TaqMan) assay for HCV RNA titers in cell culture supernatants; type: cell-based, human; settings: kinetic experiment, inoculated with ~10^4 TCID50, day 6 and 9
Experimental: RNA was purified from 200 μl of heat inactivated (56° C. for 30 min) cell culture supernatant and eluted in a final volume of 50 μl using the Total Nucleic Acid Isolation Kit (Roche) in combination with the Total NA Variable Elution Volume protocol on a MagNA Pure LC Instrument (Roche). As an internal control, Phocine Distemper Virus (PDV) was added to the lysis buffer in a concentration titrated to yield a Ct of ˜32 upon real-time PCR analysis. In parallel to RNA purified from cell culture supernatants, a quantitative HCV standard panel covering RNA concentrations of 0 to 5×10^6 IU/ml in one log increments (OptiQuant HCV Panel, AcroMetrix) was analysed. […] For HCV, primers and a FAM-labelled MGB-probe were directed against the 5′ UTR and were previously shown to perform equivalently against a panel of the six major HCV genotypes in a different TaqMan assay (Engle R E, Bukh J, and Purcell R H, 2007) For PDV, a ready-to-use primer/probe mix was used (Dr. H. G. M. Niesters, Department of Virology, Erasmus Medical Centre, Rotterdam, The Netherlands). […] HCV RNA titers (IU/ml) were calculated using a standard curve created from the known concentrations of the standard panel and their corresponding Ct values (cycle number, at which the normalised fluorescence signal rises above a fixed threshold of 0.2 […] to the amount of template in the PCR reaction). […]

[3] = test system: Huh7.5 cells; test: Percentage of infected cells by immuno-staining for HCV NS5A; type: cell-based, human
Experimental: Analyses were carried out as previously described with modifications. Huh7.5 cells were washed with PBS, trypsinized and plated on chamber slides (Nunc). After ˜24 hours cells were washed twice with PBS and fixed 5 min with ice-cold methanol. After washing 2× with PBS and 1× with PBS/Tween (0.1% Tween-20), slides were blocked with PBS containing bovine serum albumin (BSA, 1%) and skim milk (0.2%) for 1 hour at room temperature. Endogenous peroxidase staining was reduced by adding 3% H202 in PBS for 5 min. After washing as above the 1st antibody (anti-NS5A, 9E10, a generous gift from Charles M. Rice, used at 1:200 in PBS/Tween) was added and incubated at 4° C. overnight. After washing slides were incubated with secondary antibody (ECLTM Anti-mouse IgG, horseradish peroxidase linked whole antibody, Amersham Biosciences, used at 1:300 in PBS/Tween) for 30 min at room temperature. After washing horseradish peroxidase substrate (DAB substrate kit, DAKO) was added. After incubation for 30 min, slides were washed with H2O, mounted with Fluoromount-G (Southern Biotech) and cover slipped. Percentage of infected cells was evaluated by light microscopy assigning values of 0% (no cells infected), 1%, 5%, 10-90% (in steps of 10%), 95% and 100% (all cells infected).

[4] = test system: J6/JFH1; test: Interferon alfa 2b treatment of infected Huh7.5 cultures, % NS5A positive cells; type: cell-based, hepatitis C virus
Experimental: (§1) FIG. 10. S52/JFH1 viruses are sensitive to treatment with Interferon alfa. […] Huh7.5 cells were infected with 10^4 TCID50 (MOI 0,003) of the indicated viruses. On day 5 after infection, cultures were evaluated for % of NS5A positive cells (first datapoint) and 4×10^5 cells of the respective culture were plated per well of a 6-well dish. After 24 hrs incubation, treatment with cell culture medium containing 500 IU/mL interferon alfa 2b was started. Interferon containing medium was replaced at the time points indicated by arrows. Cultures were evaluated for the % of NS5A positive cells at the indicated timepoints.
(§2) As proof of principle of using the present invention in testing of anti-hepatitis C virus substances, the effects of interferon alfa, currently used in combination therapy for HCV, were tested on the infected cell culture. […] Thus we treated Huh7.5 cell cultures infected with J6/JFH1, S52/JFH1(T2718G; A4550C) and S52/JFH1(A4550C) with cell culture medium containing 5001 U/mL interferon alfa 2b (FIG. 10). After initiation of treatment, we observed for all cultures a fast decline of HCV antigen positive cells. Thus, for J6/JFH1 and S52/JFH1(T2718G; A4550C) the percentage of NS5A positive cells was 90 and 60 the day prior to treatment, whereas only 20% and 10% NS5A positive cells were detected in the respective cultures on day 3 of treatment ([…]).
(§3) HCV cell culture systems could be important tools for testing of antiviral therapeutics. […] Thus Huh7.5 cell cultures infected with J6/JFH1, S52/JFH1(T2718G; A4550C) and S52/JFH1(A4550C) were treated with cell culture medium containing 5001 U/mL interferon alfa 2b. After initiation of treatment, a fast decline of HCV antigen positive cells was shown for all cultures. Thus, for J6/JFH1 and S52/JFH1(T2718G; A4550C) the percentage of NS5A positive cells was 90 and 60 the day prior to treatment, whereas only 20% and 10% NS5A positive cells were detected in the respective cultures on day 3 of treatment (FIG. 10).

[5] = test system: S52/JFH1(A4550C); test: as above; type: cell-based, hepatitis C virus; settings: 5001 U/mL interferon alfa 2b in medium (FIG. 10 legend: 500 IU/mL)
Experimental: as §1, §2, §3

[6] = test system: S52/JFH1(T2718G; A4550C); test: as above; type: cell-based, hepatitis C virus
Experimental: as §1, §2, §3

[7] = 5001 U/mL interferon alfa 2b in medium (FIG. 10 legend: 500 IU/mL)
[8] = day 6, cultures not treated for 48 hrs

How did the “infectivity titer (TCID50)” value [1] turn out when “S52/JFH1: intergenotypic 3a/2a recombinant HCV: Core-NS2 of strain S52, 5' UTR, NS3-NS5B and 3' UTR of JFH1” was run?
The value was “undeterminable”.

And the “infectivity titer (TCID50)” value ([1]; listed as pS52/JFH1)?
Its value is “non-determinable”.

And the “Peak infectivity titers after transfection” value ([1]; days 3, 7 and 9 post-transfection (FIG. 5B))?
Its value is “significantly lower titers”.

What about the “peak HCV RNA titers” value [2] of the same substance?
The value was ~10^7 copies/ml.

What about the “% infected cells” value ([3]; First experiment, 2nd viral passage (used for kinetic experiment), day 11) of the same substance?
Its value is 95%.

What about the “% infected cells” value ([3]; First experiment, 3rd viral passage (inoculated with 10^2.5 TCID50), day 12) of the same substance?
The value was 95%.

And the “% infected cells” value ([3]; First experiment, 3rd viral passage (inoculated with 10^4 TCID50), day 3)?
Its value is 90%.

And the “% infected cells” value ([3]; First experiment, transfection, experimental day 11)?
The value was 40%.

And the “% infected cells” value ([3]; Second experiment, 1st viral passage, experimental day 8)?
The value was 95%.

And the “% infected cells” value ([3]; Second experiment, transfection, experimental day 33)?
The value was 70%.

What about the “NS5A antigen positive cells” value ([3]; day 1 after transfection with RNA transcripts) of the same substance?
The value was roughly 10%.

What about the “time until viruses spread to the entire culture” value (“time until viruses spread” below) ([3]; naive Huh7.5 cells infected with approximately 10^2.5 TCID50) of the same substance?
The value was 12 days.

What about the “time until viruses spread” value ([3]; naive Huh7.5 cells infected with approximately 10^3 TCID50) of the same substance?
Its value is 9 days.

And the “time until viruses spread” value ([3]; naive Huh7.5 cells infected with approximately 10^4 TCID50)?
The value was 3 days.

How did the “HCV antigen positive cells after initiation of treatment” value (“HCV antigen positive cells” for short) [4, 7] turn out when interferon alfa 2b was run?
The value was “fast decline”.

And the NS5A positive cells ([4]; day 3 of treatment, 90 the day prior to treatment)?
The NS5A positive cells was 20%.

And the NS5A positive cells [4, 8]?
Its NS5A positive cells is 40%.

And the “HCV antigen positive cells” value [5]?
The value was “fast decline”.

And the “HCV antigen positive cells” value [6, 7]?
Its value is “fast decline”.

What about the NS5A positive cells ([6]; day 3 of treatment, 60 the day prior to treatment) of the same substance?
Its NS5A positive cells is 10%.

And the NS5A positive cells [6, 8]?
The NS5A positive cells was 40%.
